Laboratory results reported in patent US9657305B2, “Synthesis of sialic acid in plants” (Medicago, Inc., priority 2006, dated 2017).

What was measured:
[1] = Synthase activity of recombinant Neu5Ac lyase (formation of Neu5Ac from D-ManNAc and pyruvate, GC-EI MS); type: biochemical; conditions: pH 7, […]° C.
Experimental: Soluble enzyme activities were assayed by incubating cell extracts with PEP 4 mM, NADH 4 mM, NaHCO3 20 mM and DTE 10 mM. Oxydation of NADH was measured by a diminution of absorbance at 340 nm after 10 min. […] Cells extracts were incubated 2 h at 37° C. in Solution B (100 mM Tris-HCl buffer, pH=7.4 and 10 mM MgCl2) containing proteinase inhibitors (pepstatine 1 μg·mL^−1, E64 1 μg·mL^1 and PMSF 1 mM) and Neu5Ac 40 mM. […] Cells extracts were incubated 2 h at 37° C. in Solution B (100 mM […], pH=7.4 and 10 mM MgCl2) containing proteinase inhibitors (pepstatine 1 μg·mL^−1, E64 1 μg·mL^1 and PMSF 1 mM) and ManNAc 20 mM and pyruvate 40 mM. Synthase activity of NeuB2 was assayed by measuring the formation of Neu5Ac after incubating transformants cells extracts with ManNAc and PEP. Cells extracts were incubated 2 h at 37° C. in Solution B (100 mM Tris-HCl buffer, pH=7.4 and 10 mM MgCl2) containing proteinase inhibitors (pepstatine 1 μg·mL^−1, E64 1 μg·mL^−1 and PMSF 1 mM) and ManNAc 10 mM and PEP 10 mM. […]
For the enzymatic assays, the reaction mixtures were first submitted to a purification step on C18 Seppack cartridges. […] The quantification of sugar was done by integration of peaks and determination of the corresponding molar values using response factors established with standard monosaccharides. […]

tobacco BY2 cells [2] = assay: In planta activity of Neu5Ac lyase: feeding transformed tobacco BY2 cells with Neu5Ac, GC of cytosolic monosaccharides; type: cell-based, Nicotiana tabacum; conditions: BY2 cells fed 10 mM Neu5Ac, 48 h
Experimental: After 2 d, BY2 cells were washed with BY2 medium without Neu5Ac or ManNAc and harvested. The cells were heated at 70° C. for 15 min in 70% ethanol to inactivate enzymes and then ground in a potter homogenizer. The homogenate was washed two times with 70% ethanol at 70° C. The remaining pellet and the supernatant were considered as representatives of the cell walls and the cytosolic free monosaccharides respectively. Monosaccharides of the supernatant fraction were then analysed by gas chromatography
The formation of D-ManNAc was determined by analysing cytosolic monosaccharides by GC after a 48 h period at temperature ranging from 23° C. to 37° C.

[3] = Stability of the recombinant enzymes expressed in the plant cytosol; conditions: tobacco BY2 cells, alfalfa plants or transient expression
Source text: The synthesis of Neu5Ac in presence of pyruvate and ManNAc was also observed.

tobacco BY2 cells [4] = assay: Toxicity of Neu5Ac on tobacco BY2 cells (cell viability, propidium iodide and fluorescein diacetate); type: cell-based, Nicotiana tabacum; conditions: 10 mM Neu5Ac, 48 h period

| Molecule | ability to synthesise Neu5Ac [1] | increase in D-ManNAc content at 37° C. compared to 23° C. (tobacco BY2 cells [2]) [fold] | degradation of recombinant protein in the cytosol [3] | toxicity of Neu5Ac on tobacco BY2 cells (cell viability) (tobacco BY2 cells [4]) |
| --- | --- | --- | --- | --- |
| Neu5Ac lyase: Neu5Ac lyase from Escherichia coli K1 (accession number D00067) expressed in tobacco BY2 cells | able to synthesise Neu5Ac | 25 | No degradation | – |
| CC(=O)N[C@H]1[C@H]([C@H](O)[C@H](O)CO)OC(O)(C(=O)O)C[C@@H]1O (stereo partly shown) [Neu5Ac, N-acetyl neuraminic acid] | – | – | – | no toxic effects were observed |
